Results published in patent publication US20240344241A1, “PROTEINACEOUS MOLECULES AND USES THEREFOR” (THE UNIVERSITY OF QUEENSLAND, priority 2021, published 2024).
Read-outs that look alike come from different tables or passages of the source. Bridge positions count the residues as written; N and C are the ends. Peptide text beside a SMILES is read from it.

What was measured:
Human β-FXIIa [1] = biological target: T1, Human β-FXIIa (Homo sapiens, UniProt P00748); experiment: FXIIa competitive inhibition assay, fluorescent substrate Boc-QGR-MCA; assay type: biochemical
T1 construct: Human β-FXIIa was obtained from Molecular Innovations, together with human FXa, human FXIa, human α-thrombin, and human plasma kallikrein; purchased Molecular Innovations; host or cells: purified from human plasma
Excerpt: Cyclic [I7F]MCoFx1 (also referred to as cyclic MCoFx6) was synthesized using solid phase peptide synthesis ([[…]] [SEQ ID NO: 97]). For this inhibitor, Tyr33 was mutated back to serine as per the original mRNA display screen (FIG. 1). Cyclic MCoFx6 was screened using a competitive inhibition assay, with the substrate being changed from a colorimetric substrate (Ac-QRFR-pNA in the data of Tables 7 and 10) to a fluorescent substrate (Boc-QGR-MCA) to allow the assay to be run with a lower concentration of enzyme. The assay was performed as described for Examples 2 and 3, except that the FXIIa concentration was 0.5 nM and the substrate concentration was 50 μM (KM=187 μM).
The new variants were screened using competitive inhibition assays, with the substrate being changed from a colorimetric substrate (Ac-QRFR-pNA in the data of Tables 7 and 10) to a fluorescent substrate (Boc-QGR-MCA) to allow the assay to be run with a lower concentration of enzyme. Assays were performed as described for Examples 2 and 3, except that the FXIIa concentration was 0.5 nM and the substrate concentration was 50 μM (KM=187 μM). […] The effect of amino acid substitutions within loop 2 (Arg12, Arg13), loop 5 (Ala25, Arg27) or loop 6 (Asp34) on the activity of cyclic MCoFx7 against FXIIa was determined (refer to Table 14). […] Additionally, mutating Arg to Glu (reversing the side chain charge) only led to two-fold weaker activity. The adjacent residue Arg13 could also be mutated to Lys with no change in activity. Within loop 5, mutating Ala25 to Lys produced a slight gain in activity, whereas the Ala to Pro mutation led to a slight decrease in activity. Both mutations at Arg27 led to losses in activity in the order of two-fold (His) or 3.2-fold (Gly).
(§1) The activity of acyclic and cyclic MCoFx1-5 and analogues thereof was assessed in competitive inhibition assays, as previously described in Swedberg et al. (2016) J Med Chem, 59: 7287-7292. Human β-FXIIa was obtained from Molecular Innovations, together with human FXa, human FXIa, human α-thrombin, and human plasma kallikrein. Human cationic trypsin and human plasmin were obtained from Sigma-Aldrich, and recombinant human matriptase was sourced from R&D Systems. Recombinant human urokinase (uPA) and recombinant human tissue plasminogen activator (tPA) were expressed in Expi293 cells, as previously described in Li et al. (2019) Chembiochem, 20: 46-50. FXIIa inhibition assays were performed in clear, low-binding 96-well plates using 250 μL (final volume) of assay buffer (0.1 M Tris-HCl pH 8.0, 0.1 M NaCl, 10 mM CaCl2 and 0.005% Triton X-100). Inhibitors were serially diluted and incubated with 10 nM FXIIa at room temperature to reach equilibrium. After adding 100 μM Ac-QRFR-pNA substrate (KM=162 μM), enzymatic activity was measured by monitoring release of the pNA moiety using a TECAN infinite M1000 Pro plate reader (A=405 nm, reading interval, 10 s; assay time course, 7 min). Assays were conducted in three times in duplicate. Substrate kinetic constants (Michaelis-Menten) and inhibition constants (Morrison K) were determined by non-linear regression using Prism 7 (GraphPad). Selectivity assays with off-target proteases were performed in a similar way, except that different concentrations of enzyme and substrate were used, as indicated in Table 16. For assays using a fluorescent substrate (peptide-4-methylcoumaryl-7-amide, MCA), black low-binding 96-well plates were used and activity was measured using a TECAN infinite M1000 pro plate reader (λex 360 nm, λem 460 nm, reading interval, 30 s; assay time course, 5-30 min).

[2] = biological target: T2, biotinylated human β-FXIIa (Homo sapiens, UniProt P00748); experiment: Surface plasmon resonance binding to FXIIa
T2 construct: purchased Molecular Innovations
Protocol: Binding kinetics of each peptide towards biotinylated human β-FXIIa (Molecular Innovations) and non-labelled zymogen FXII (Haematologic Technologies) were determined using a Biacore T200 machine (Cytiva). For β-FXIIa binding measurements, the running buffer was HBS-EP+(10 mM HEPES, 150 mM NaCl, 3 mM EDTA and 0.05% (v/v) surfactant P20, pH 7.4). Biotinylated β-FXIIa was immobilized on a Sensor Chip CAP (Cytiva) using Biotin CAPture Reagent (Cytiva). A series of concentrations of each peptide were injected as analyte and the binding kinetics were modelled using a 1:1 binding model. Regeneration of sensor surface was performed after each measurement cycle. For FXII binding measurements, the running buffer was PBST (137 mM NaCl, 2.7 mM KCl, 10 mM Na2HPO4, 1.8 mM KH2PO4, 0.05% Tween-20). Non-labelled FXII was immobilized on a Sensor Chip CM5 (Cytiva) using Amine Coupling Kit (Cytiva), achieving a final immobilization level of 2500 RU. Each peptide was flowed through immobilized FXII at 5 μM for 60 s and allowed dissociation for 150 s.

bovine trypsin = biological target: T3, bovine trypsin (Bos taurus, UniProt P00760); experiment: Surface plasmon resonance binding to trypsin
T3 sequence (P00760 24-246): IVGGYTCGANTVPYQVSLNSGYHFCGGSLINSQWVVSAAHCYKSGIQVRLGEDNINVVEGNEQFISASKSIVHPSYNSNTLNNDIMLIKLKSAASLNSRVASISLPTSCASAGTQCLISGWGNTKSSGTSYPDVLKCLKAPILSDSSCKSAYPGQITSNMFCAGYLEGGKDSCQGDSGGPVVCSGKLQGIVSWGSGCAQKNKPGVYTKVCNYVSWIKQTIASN

Human β-FXIIa [3] = biological target: T1, Human β-FXIIa; experiment: FXIIa competitive inhibition assay, colorimetric substrate Ac-QRFR-pNA; assay type: biochemical
Protocol: as §1

[4] = Table 8, cyclic form, read-out: KD (nM) Trypsin Cyclic
[5] = Table 7, FXIIa, cyclic form of the peptide, read-out: Ki (nM) Cyclic

T2 sequence (P00748 373-615 limits assumed, other chains not shown): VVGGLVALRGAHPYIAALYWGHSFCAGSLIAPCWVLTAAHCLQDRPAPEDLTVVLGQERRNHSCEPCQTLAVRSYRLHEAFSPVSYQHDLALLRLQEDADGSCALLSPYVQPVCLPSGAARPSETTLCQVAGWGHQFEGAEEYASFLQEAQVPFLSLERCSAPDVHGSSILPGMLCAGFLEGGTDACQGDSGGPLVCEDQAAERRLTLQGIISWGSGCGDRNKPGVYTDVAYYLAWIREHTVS
T1 sequence (P00748 373-615 limits assumed, other chains not shown): as above

SMILES	Kd [2]	Kd (bovine trypsin)	Ki (Human β-FXIIa [3])	Kd (bovine trypsin; [4])	Ki (Human β-FXIIa [3]; [5])	also measured
CC[C@H](C)[C@@H]1NC(=O)CNC(=O)CNC(=O)[C@H](CC(=O)O)NC(=O)[C@H](CO)NC(=O)CNC(=O)[C@H](CO)NC(=O)CNC(=O)[C@@H]2CSSC[C@@H]3NC(=O)[C@H](CC(=O)O)NC(=O)[C@H](CO)NC(=O)[C@H](CC(=O)O)NC(=O)[C@H](CCCNC(=N)N)NC(=O)[C@H](CCCNC(=N)N)NC(=O)[C@@H]4CSSC[C@H](NC(=O)[C@H]([C@@H](C)CC)NC(=O)[C@H](CSSC[C@H](NC1=O)C(=O)N1CCC[C@H]1C(=O)N[C@@H](CCCNC(=N)N)C(=O)N[C@@H]([C@@H](C)CC)C(=O)NCC(=O)N[C@@H](CCCNC(=N)N)C(=O)N[C@@H](CC(C)C)C(=O)N4)NC(=O)[C@H](C)NC(=O)CNC(=O)[C@@H]1CCCN1C3=O)C(=O)N[C@@H](CCCNC(=N)N)C(=O)N[C@@H](C)C(=O)N[C@@H]([C@@H](C)O)C(=O)N[C@@H](Cc1c[nH]cn1)C(=O)N[C@@H](Cc1ccccc1)C(=O)N2 [Cyclic [R27H]MCoFx7] (cyclo(ACICRATHFCGSGSDGGICPRIGRLCRRDSDCPG); disulfide 2-19, 4-26, 10-32)	–	–	–	–	–	Ki (Human β-FXIIa [1]): 0.12 ± 0.008 nM
CC[C@H](C)[C@H](NC(=O)CNC(=O)CNC(=O)[C@@H](N)CC(=O)O)C(=O)N[C@H]1CSSC[C@@H]2NC(=O)[C@H](C)NC(=O)CNC(=O)[C@@H]3CCCN3C(=O)[C@@H]3CSSC[C@@H](C(=O)NCC(=O)N[C@@H](CO)C(=O)NCC(=O)N[C@@H](CO)C(=O)O)NC(=O)[C@H](Cc4ccc(O)cc4)NC(=O)[C@H]([C@@H](C)O)NC(=O)[C@H](CCCNC(=N)N)NC(=O)[C@H](CCCNC(=N)N)NC(=O)[C@H]([C@@H](C)CC)NC(=O)[C@H](CSSC[C@H](NC(=O)[C@H](Cc4ccc(O)cc4)NC(=O)[C@H](C(C)C)NC(=O)[C@H](CC(C)C)NC(=O)[C@H]([C@@H](C)CC)NC(=O)[C@H](CCCNC(=N)N)NC(=O)[C@@H]4CCCN4C1=O)C(=O)N[C@@H](CCCNC(=N)N)C(=O)N[C@@H](CCCNC(=N)N)C(=O)N[C@@H](CC(=O)O)C(=O)N[C@@H](CO)C(=O)N[C@@H](CC(=O)O)C(=O)N3)NC(=O)[C@H]([C@@H](C)CC)NC2=O [MCoFx2 acyclic] (H-DGGICPRILVYCRRDSDCPGACICIRRTYCGSGS-OH; disulfide 5-22, 12-24, 18-30)	45.4 ± 2.9 nM	< 0.1 nM	73 ± 3 nM	–	–	–
CC[C@H](C)[C@@H]1NC(=O)CNC(=O)CNC(=O)[C@H](CC(=O)O)NC(=O)[C@H](CO)NC(=O)CNC(=O)[C@H](CO)NC(=O)CNC(=O)[C@@H]2CSSC[C@@H]3NC(=O)[C@H](CC(=O)O)NC(=O)[C@H](CO)NC(=O)[C@H](CC(=O)O)NC(=O)[C@H](CCCNC(=N)N)NC(=O)[C@H](CCCNC(=N)N)NC(=O)[C@@H]4CSSC[C@H](NC(=O)[C@H]([C@@H](C)CC)NC(=O)[C@H](CSSC[C@H](NC1=O)C(=O)N1CCC[C@H]1C(=O)N[C@@H](CCCNC(=N)N)C(=O)N[C@@H]([C@@H](C)CC)C(=O)N[C@@H](CC(C)C)C(=O)N[C@@H](C(C)C)C(=O)N[C@@H](Cc1ccc(O)cc1)C(=O)N4)NC(=O)[C@H](C)NC(=O)CNC(=O)[C@@H]1CCCN1C3=O)C(=O)N[C@@H]([C@@H](C)CC)C(=O)N[C@@H](CCCNC(=N)N)C(=O)N[C@@H](CCCNC(=N)N)C(=O)N[C@@H]([C@@H](C)O)C(=O)N[C@@H](Cc1ccc(O)cc1)C(=O)N2 [MCoFx2 cyclic] (cyclo(ACICIRRTYCGSGSDGGICPRILVYCRRDSDCPG); disulfide 2-19, 4-26, 10-32)	–	–	–	< 0.1 nM	12 ± 0.7 nM	Kd ([2]; Table 7, FXIIa, cyclic form of the peptide, read-out: KD (nM) Cyclic): 10 nM
CC[C@H](C)[C@@H]1NC(=O)[C@@H]2CSSC[C@H](NC(=O)[C@H](CCCNC(=N)N)NC(=O)CNC(=O)CNC(=O)[C@@H](N)CC(=O)O)C(=O)N3CCC[C@H]3C(=O)N[C@@H](CCCNC(=N)N)C(=O)N[C@@H](CC(C)C)C(=O)N[C@@H](CC(C)C)C(=O)N[C@@H](CCCNC(=N)N)C(=O)N[C@@H](Cc3c[nH]c4ccccc34)C(=O)N[C@H]3CSSC[C@H](NC1=O)C(=O)N[C@@H](C)C(=O)N[C@@H](CCCNC(=N)N)C(=O)NCC(=O)NCC(=O)N[C@@H](CC(C)C)C(=O)N[C@H](C(=O)NCC(=O)N[C@@H](CO)C(=O)NCC(=O)N[C@@H](CO)C(=O)O)CSSC[C@H](NC(=O)[C@H](CC(=O)O)NC(=O)[C@H](CO)NC(=O)[C@H](CC(=O)O)NC(=O)[C@H](CCCNC(=N)N)NC(=O)[C@H](CCCNC(=N)N)NC3=O)C(=O)N1CCC[C@H]1C(=O)NCC(=O)N[C@@H](C)C(=O)N2 [MCoFx3 acyclic] (H-DGGRCPRLLRWCRRDSDCPGACICARGGLCGSGS-OH; disulfide 5-22, 12-24, 18-30)	167 ± 40 nM	2.39 nM	525 ± 30 nM	–	–	–
CC[C@H](C)[C@@H]1NC(=O)[C@@H]2CSSC[C@@H]3NC(=O)[C@H](CCCNC(=N)N)NC(=O)CNC(=O)CNC(=O)[C@H](CC(=O)O)NC(=O)[C@H](CO)NC(=O)CNC(=O)[C@H](CO)NC(=O)CNC(=O)[C@@H]4CSSC[C@H](NC(=O)[C@H](CC(=O)O)NC(=O)[C@H](CO)NC(=O)[C@H](CC(=O)O)NC(=O)[C@H](CCCNC(=N)N)NC(=O)[C@H](CCCNC(=N)N)NC(=O)[C@H](CSSC[C@H](NC1=O)C(=O)N[C@@H](C)C(=O)N[C@@H](CCCNC(=N)N)C(=O)NCC(=O)NCC(=O)N[C@@H](CC(C)C)C(=O)N4)NC(=O)[C@H](Cc1c[nH]c4ccccc14)NC(=O)[C@H](CCCNC(=N)N)NC(=O)[C@H](CC(C)C)NC(=O)[C@H](CC(C)C)NC(=O)[C@H](CCCNC(=N)N)NC(=O)[C@@H]1CCCN1C3=O)C(=O)N1CCC[C@H]1C(=O)NCC(=O)N[C@@H](C)C(=O)N2 [MCoFx3 cyclic] (cyclo(ACICARGGLCGSGSDGGRCPRLLRWCRRDSDCPG); disulfide 2-19, 4-26, 10-32)	–	–	–	2.72 nM	75 ± 3 nM	Kd ([2]; Table 8, cyclic form, read-out: KD (nM) FXIIa Cyclic): 22.8 ± 1.6 nM
